Here are results for one compound from patent EP4541815A1, “ANTIBODY AGAINST HEPATITIS B VIRUS, PREPARATION THEREOF AND USE THEREOF” (priority 2022, dated 2023).

The test system of the assay is HBV D genotype. As to the kind of experiment: Antiviral activity in HBV-infected liver-humanized chimeric hFRG mouse model, plasma HBV DNA by qPCR. It is filed as in vivo. To be noted: hFRG mice. Here is the method:
To investigate the therapeutic efficacy of afuco-A14 GA LS against established HBV infection, the efficacy of afuco-A14 GA LS administered alone and in combination with entecavir, was evaluated in a liver-humanized chimeric hFRG (Fah^-/- Rag2^-/- /IL2rg^-/-) mouse model. Entecavir is a hepatitis B virus reverse transcriptase inhibitor that treats hepatitis B by inhibiting viral replication. The disadvantage of entecavir is the rebound of viral replication upon discontinuation of treatment.
A control group (saline), an afuco-A14 GA LS monotherapy group (10 mg/kg), an entecavir (ETV) monotherapy group (ETV, 0.1 mg/kg), and a combination therapy group of afuco-A14 GA LS (10 mg/kg) and entecavir (0.1 mg/kg) were set up in the experiment, respectively. Mice were administered (afuco-A14 GALS was administered subcutaneously and ETV was administered orally) starting on day 28 (D28) post HBV infection (HBV D genotype, 2 × 10^9 GE/mouse). Thereafter, afuco-A14 GA LS was administered subcutaneously once a week (D35, D42, D49, D56, D63, and D70), while ETV was administered once a day until D70. The observation period continued after discontinuation until D91.
Plasma from experimental mice was collected by venous blood sampling, and then qPCR was used to quantitatively detect the level of HBV DNA in the plasma of the mice. […]
Background: In qPCR the cycle at which signal appears reflects the starting amount.

Structures are written as SMILES.

For the compound `C=C1[C@H](CO)[C@@H](O)C[C@@H]1n1cnc2c(=O)[nH]c(N)nc21` [ETV, entecavir], the “reduction of mean viral titre at the end of the study (D91) compared to the starting point of treatment (D28)” value (21 days post-discontinuation, afuco-A14 GA LS 10 mg/kg s.c., ETV 0.1 mg/kg oral) stood at 7.15 fold. In addition, for the setting “treatment D28 to D70, afuco-A14 GA LS 10 mg/kg s.c. once a week, ETV 0.1 mg/kg oral once a day, compared to control group (saline)”, the “decrease of viral DNA levels at the final dose (D70)” value was ~436 fold.
